Results from article PMC7226586 (Journal of Medicinal Chemistry, 2019).

Assays:
[1] = target: T1, purified recombinant CYP46A1 (Homo sapiens, UniProt Q9Y6A2); test: CYP46A1 enzyme assay; type: biochemical; settings: for shape of concentration dependence curve of CYP46A1 activity: 0–100 μM compound; for CYP46A1 inhibition at the 60–100 μM concentrations: 60–100 μM compound; for effect of co-incubation with L-Glu on CYP46A1 activation: 100 μM L-Glu
substrate-free CYP46A1 = substrate-free CYP46A1 (Homo sapiens, UniProt Q9Y6A2); test: Spectral titrations of substrate-free CYP46A1; type: binding; settings: for spectral response type, substrate-free CYP46A1: P450 difference spectrum, 18 °C
[2] = target: cholesterol-bound CYP46A1 (Homo sapiens, UniProt Q9Y6A2); test: Spectral titrations of cholesterol-bound CYP46A1; type: binding; settings: 20 μM cholesterol; for spectral response fit, cholesterol-bound CYP46A1 / spectral response type, cholesterol-bound CYP46A1: 18 °C
CYP46A1 = CYP46A1 (Homo sapiens, UniProt Q9Y6A2); test: Stopped-flow kinetics of compound binding to and release from CYP46A1; settings: for mechanism of binding to substrate-free CYP46A1: stopped-flow experiments; for spectral binding at 15–30 μM, stopped-flow: substrate-free CYP46A1, 15–30 μM compound
[3] = target: T1, purified recombinant CYP46A1; settings: previous study; cited from earlier work
[4] = plasma of EFV-treated subjects; cited from earlier work
[5] = cited from earlier work
protein (albumin) = settings: cited from earlier work
[6] = within 1 h of an intraperitoneal administration; cited from earlier work
CYP46A1 in the brain = settings: 0.32 (mg/da)/kg body dose, mice; cited from earlier work
[7] = target: CYP46A1 allosteric sites (EFV binding site, Glu binding site) (Homo sapiens, UniProt Q9Y6A2); test: Mapping of the allosteric site; type: biochemical; settings: for allosteric site of binding: from co-incubations and mutants
[8] = Cholesterol binding to HPCD; settings: read-out: Kd of cholesterol for HPCD; 50 mM KPi buffer (pH 7.2) containing 100 mM NaCl at 24 °C
[9] = concentrations mimicking the 600 mg/day EFV dose; cited from earlier work

Compound: O=C1Nc2ccc(Cl)cc2[C@@](C#CC2CC2)(C(F)(F)F)O1 [(S)-EFV, (S)-6-chloro-4-(cyclopropylethynyl)-4-(trifluoromethyl)-1,4-dihydro-2H-benzo[d][1,3]oxazin-2-one, reference compound]
- shape of concentration dependence curve of CYP46A1 activity [1]: bell-shaped
- CYP46A1 inhibition at the 60–100 μM concentrations [1]: inhibitory
- fit of spectral titration curve, substrate-free CYP46A1 (substrate-free CYP46A1): hyperbolic
- spectral response type, substrate-free CYP46A1 (substrate-free CYP46A1): type 2
- fit of spectral titration curve, cholesterol-bound CYP46A1 [2]: sigmoidal
- spectral response fit, cholesterol-bound CYP46A1 [2]: S
- spectral response type, cholesterol-bound CYP46A1 [2]: reverse type 1
- mechanism of binding to substrate-free CYP46A1 (CYP46A1): conformational-selection
- spectral binding at 15–30 μM, stopped-flow (CYP46A1): measurable
- CYP46A1 inhibition at 100 μM [3]: almost completely inhibited
- plasma level [4]: 2170 to 3350 ng/mL
- cerebrospinal fluid level [5]: 13.9 to 19.5 ng/mL
- protein (albumin)-bound in the blood (protein (albumin)): ≥ 99.6%
- brain levels exceeding those in the plasma [6]: 4.6 times
- effect on CYP46A1 in the brain (CYP46A1 in the brain): inhibited

Compound: O=C1Nc2cc(O)c(Cl)cc2[C@@](C#CC2CC2)(C(F)(F)F)O1 [7-hydroxyEFV, (S)-7-hydroxyEFV]
- plasma level [4]: 8.8 to 225 ng/mL
- cerebrospinal fluid level [5]: 0.63 ng/mL

Compound: O=C1Nc2c(O)cc(Cl)cc2C(C#CC2(O)CC2)(C(F)(F)F)O1 (racemic) [rac-3]
- shape of concentration dependence curve of CYP46A1 activity [1]: essentially hyperbolic
- effect of co-incubation with (S)-EFV on CYP46A1 activation ([1]; 20 μM (S)-EFV, 20 μM compound): synergistic CYP46A1 activation
- effect of co-incubation with L-Glu on CYP46A1 activation ([1]; 20 μM compound): lower
- fit of spectral titration curve, substrate-free CYP46A1 (substrate-free CYP46A1): hyperbolic
- spectral response type, substrate-free CYP46A1 (substrate-free CYP46A1): type 2
- difference in the apparent spectral Kd versus (S)-EFV (substrate-free CYP46A1; substrate-free CYP46A1): 2 fold
- fit of spectral titration curve, cholesterol-bound CYP46A1 [2]: hyperbolic
- spectral response type, cholesterol-bound CYP46A1 [2]: reverse type 1-like
- kon lower than that of (S)-EFV (CYP46A1): 3 fold
- mechanism of binding to substrate-free CYP46A1 (CYP46A1): conformational-selection
- rates of binding (kobserved) lower than those for (S)-EFV (CYP46A1; substrate-free CYP46A1): ≥ 7 fold
- spectral binding at 15–30 μM, stopped-flow (CYP46A1): essentially no spectral binding
- P450 activation with replacements within the Glu-binding site ([7]; CYP46A1 mutants K358A, F416A and Y427A, 20 μM compound): largely reduced or abolished
- P450 activation with replacements within the EFV-binding site ([7]; CYP46A1 mutants R415A and F405A, 20 μM compound): not significantly affected
- allosteric site of binding [7]: mainly with the allosteric site for Glu

Compound: O=C1CC(C#CC2CC2)(C(F)(F)F)c2cc(Cl)ccc2N1 (racemic) [rac-8]
- CYP46A1 activation compared with that with (S)-EFV [1]: similar
- shape of concentration dependence curve of CYP46A1 activity [1]: bell-shaped
- effect of co-incubation with L-Glu on CYP46A1 activation ([1]; 20 μM compound): synergistically activated
- fit of spectral titration curve, substrate-free CYP46A1 (substrate-free CYP46A1): hyperbolic
- spectral response type, substrate-free CYP46A1 (substrate-free CYP46A1): type 1
- fit of spectral titration curve, cholesterol-bound CYP46A1 [2]: sigmoidal
- spectral response fit, cholesterol-bound CYP46A1 [2]: S
- spectral response type, cholesterol-bound CYP46A1 [2]: reverse type 1-like
- allosteric site of binding [7]: preferential EFV-site binding

Compound: CCCC#CC1(C(F)(F)F)OC(=O)Nc2ccc(Cl)cc21 (racemic) [rac-9]
- CYP46A1 activation compared with that with (S)-EFV [1]: lower
- shape of concentration dependence curve of CYP46A1 activity [1]: bell-shaped
- effect of co-incubation with L-Glu on CYP46A1 activation ([1]; 20 μM compound): synergistically activated
- fit of spectral titration curve, substrate-free CYP46A1 (substrate-free CYP46A1): hyperbolic
- spectral response type, substrate-free CYP46A1 (substrate-free CYP46A1): type 1
- fit of spectral titration curve, cholesterol-bound CYP46A1 [2]: sigmoidal
- spectral response fit, cholesterol-bound CYP46A1 [2]: S
- spectral response type, cholesterol-bound CYP46A1 [2]: reverse type 1-like
- allosteric site of binding [7]: preferential EFV-site binding

Compound: CC(C)CCC[C@@H](C)[C@H]1CC[C@H]2[C@@H]3CC=C4C[C@@H](O)CC[C@]4(C)[C@H]3CC[C@]12C [cholesterol]
- Kd (substrate-free CYP46A1; Kd for substrate-free CYP46A1 (M), cholesterol, from an apparent Kd of 80 nM [20] after the correction for HPCD binding): 9e-09 M
- calculated kon higher than that for rac-3 (CYP46A1): 1.9 fold
- calculated kon lower than that for (S)-EFV (CYP46A1): 1.7 fold
- koff (CYP46A1; read-out: experimental koff (s^–1)): 0.012 ± 0.002 s⁻¹
- Kd [8]: 540 µM

Compound: O=C1Nc2c(O)cc(Cl)cc2[C@@](C#CC2CC2)(C(F)(F)F)O1 [(S)-1, (S)-8-hydroxyEFV]
- shape of concentration dependence curve of CYP46A1 activity [1]: bell-shaped
- effect of co-incubation with L-Glu on CYP46A1 activation ([1]; 20 μM compound): synergistically activated
- CYP46A1 inhibition at the 60–100 μM concentrations [1]: did not inhibit
- fit of spectral titration curve, substrate-free CYP46A1 (substrate-free CYP46A1): hyperbolic
- spectral response type, substrate-free CYP46A1 (substrate-free CYP46A1): type 2
- fit of spectral titration curve, cholesterol-bound CYP46A1 [2]: sigmoidal
- spectral response fit, cholesterol-bound CYP46A1 [2]: S
- spectral response type, cholesterol-bound CYP46A1 [2]: reverse type 1-like
- allosteric site of binding [7]: both EFV- and Glu-binding sites
- plasma level [4]: 315 to 2160 ng/mL
- cerebrospinal fluid level [5]: 3.1 to 5.3 ng/mL
- cell damage or death in cell culture [9]: induce cell damage or death
